Experimental data published in PMC9229798, “Antioxidant Activity and Cytotoxicity of Aromatic Oligosulfides” (Molecules, 2022).

Experiments:
[1] = Fe2+ chelating activity; read-out: FIC, IC50 (EDTA activity); cited from earlier work
[2] = test system: A-549; experiment: MTT assay; assay type: cell-based, human
Procedure: (§1) The antiproliferative activity of aromatic oligosulfides 1–6 was determined against human cell lines, including colon carcinoma HCT-116, breast adenocarcinoma MCF-7, lung adenocarcinoma A-549, colorectal carcinoma SW-480, and non-tumourigenic WI-38, using the MTT assay (Table 4). […] However, some selectivity for cancer cells was evident and the IC50 values for non-tumourigenic cells were slightly higher for compounds 1 and 2.
(§2) Cell survival was determined by the MTT [3-(4,5-[…])-2,5-diphenyl tetrazolium bromide] assay by Niks method with small modifications. HCT-116 (colon carcinoma), MCF-7 (breast adenocarcinoma), A-549 (lung adenocarcinoma) and SW-480 (colorectal carcinoma) human cancer cell lines and WI-38 (cell line composed of fibroblasts) were cultured in DMEM (PanEco, Moscow, Russia) with Glutamin (PanEco, Moscow, Russia) and antibiotics (PanEco, Moscow, Russia) in CO2 (5%) at 37 °C. The compounds were dissolved (20 mM) in DMSO and then added to the cell culture medium at the required concentration with a maximum DMSO content of 0.5 v/v%. At these concentrations, DMSO had no effect on cell viability, as was shown in the control experiments. Cells were cultured in 96-well plates (7000 cells/well) and treated with various concentrations (from […]) of the test compounds as well as doxorubicin at 37 °C for 72 h. Cell viability was determined using the MTT assay, which quantified dehydrogenase activity. Then, the cells were incubated at 37 °C for 50 min with a solution of MTT ([…], 5 mg × mL^−1) (Sigma-Aldrich, St. Louis, MO, USA). The supernatant was discarded, and cells were dissolved in DMSO ([…]). The optical density of the solution was measured at 570 nm with use of a multiwall-plate reader (Anthos Zenyth 2000rt, Biochrom, Cambridge, UK), and the percentage of surviving cells was calculated from the absorbance of untreated cells. Each experiment was repeated at least three times, and each concentration was tested in at least three replicates. Data were presented as a graph of the percentage of surviving cells versus the concentration of the test substances. The meanings of 50% inhibition concentration (IC50) with standard deviation were calculated using GraphPad Prism Version 5.03 for Windows (GraphPad Software, San Diego, CA, USA).

[3] = test system: HCT-116; experiment: MTT assay; assay type: cell-based, human
Procedure: as §1, §2

[4] = test system: MCF-7; experiment: MTT assay; assay type: cell-based, human
Procedure: as §1, §2

[5] = test system: SW-480; experiment: MTT assay; assay type: cell-based, human
Procedure: as §1, §2

[6] = test system: HCT-116; experiment: Annexin V/Dead Cell assay; assay type: cell-based, human; conditions: HCT-116, 2 × IC50, 24 h
From the text: Apoptosis or programmed cell death is an important and active regulatory pathway of cell growth and proliferation. Cells respond to specific induction signals by initiating intracellular processes that result in characteristic physiological changes. Among these are externalization of phosphatidylserine (PS) to the cell surface, cleavage and degradation of specific cellular proteins, compaction and fragmentation of nuclear chromatin, and loss of membrane integrity. Phosphatidylserine (PS) is normally located in the inner part of the cell membrane. In the initial stage of apoptosis, the PS residues which translocated to the extracellular are detected by Annexin V, which is a calcium-dependent phospholipid-binding protein with a high affinity for PS. Annexin V flow cytometric assay was used to evaluate the compounds’ ability to induce apoptosis and influence on cell death. HCT-116 colon carcinoma and A-549 lung adenocarcinoma cells were treated by disulfides 2 and 3.
HCT-116 (colon carcinoma) and A-549 (lung carcinoma) cells (1 × 10^6) were seeded in a six-well plate and were incubated for 24 h. […] After incubation, the cells were harvested by trypsinization, precipitated by centrifugation (3000 rpm), washed with PBS, recentrifuged, and the buffer was removed. DMEM was added to achieve a cell concentration of 400–1000 cells/µL. The Muse Annexin V & Dead Cell Kit reagent (100 µL) was added to the cells and […] for 20 min at room temperature in the dark. The results were recorded on a Muse Cell Analyzer flow cytometer (Merck, Rahway, NJ, USA).

SMILES: O=C([O-])CN(CCN(CC(=O)[O-])CC(=O)O)CC(=O)O.[Na+].[Na+] [EDTA, reference compound]
- IC50 [1]: 380 ± 30 µM

SMILES: N.N.[Cl][Pt][Cl] [cisplatin, reference compound]
- IC50 ([2]; 72 h): 20.1 ± 5.6 µM
- IC50 ([3]; 72 h): 9.1 ± 2.3 µM
- IC50 ([4]; 72 h): > 30 µM
- IC50 ([5]; 72 h): 17.6 ± 5.4 µM

SMILES: COc1cccc2c1C(=O)c1c(O)c3c(c(O)c1C2=O)C[C@@](O)(C(=O)CO)C[C@@H]3O[C@H]1C[C@H](N)[C@H](O)[C@H](C)O1 [doxorubicine, doxorubicin, reference compound]
- IC50 ([2]; Homo sapiens, A549, 72 h): 0.24 ± 0.02 µM
- IC50 ([3]; Homo sapiens, HCT-116, 72 h): 0.65 ± 0.05 µM
- IC50 ([4]; Homo sapiens, MCF7, 72 h): 0.28 ± 0.03 µM
- IC50 ([5]; Homo sapiens, SW480, 72 h): 0.45 ± 0.06 µM
- total apoptotic cells [6]: 17.9%
